Assay results published in patent publication US20160237032A1, “PROCESS TO MANUFACTURE N-[(3S)-1-[4-[(3-FLUOROPHENYL)METHOXY]PHENYL]-5-OXO-PYRROLIDIN-3-YL]ACETAMIDE” (Hoffmann-La Roche Inc., priority 2013, published 2016).

Assay: thermodynamic stability of polymorphic forms
Type: physicochemical
Conditions: at room temperature

CC(=O)N[C@H]1CC(=O)N(c2ccc(OCc3cccc(F)c3)cc2)C1 [Polymorph B, N-[(3S)-1-[4-[(3-fluorophenyl)methoxy]phenyl]-5-oxo-pyrrolidin-3-yl]acetamide]
thermodynamic stability of the crystal form: thermodynamically stable form
